Experimental findings from a melting point compilation (Tetko et al.; mined from patent text by program, amines drawn as free bases though some values may be those of a salt) are described below.

Molecules are shown by their SMILES.

Molecule `Cc1cccc2c1C(=O)N1CC[C@H]1c1c(C(=O)OC3CCCCC3)ncn1-2` gave a melting point of 199 to 200 °C.

The molecule `COc1nc(C)c(C(C)O)cc1NC(=O)N1CCN(c2cc(C)cc(C)c2)CC1` (centres undefined) gave a melting point of 153 to 154 °C.

Regarding `CCCCCCCCCCCCOc1cc(O)c(C(=O)c2ccccc2)c(OCCCCCCCCCCCC)c1`, the melting point was 37 to 38 °C.

On to `COc1cc(CCNc2ncnc3scnc23)ccc1Oc1c(F)cnc(C(F)(F)F)c1F`, for which the melting point is 108 to 112 °C.

As for `COCNC(=O)NC1CCCc2sccc21` (centres undefined), the melting point lay within 160 to 162 °C.

Take `O=C(CCCCCC1(C(=O)O)CCCC1)CCCCCC1(C(=O)O)CCCC1`: the melting point fell in the range of 78 to 85 °C.

As for `CN(C)C=Cc1[nH]c(=O)ccc1C(=O)c1ccccc1`, the melting point was in the range of 202 to 204 °C.

Turning to `OC(c1ccccc1)c1ccc2c(c1)N1CCN=C1S2` (centres undefined), the melting point came out at 175 °C.

`Cn1c(=O)cnn(-c2ccc(Cl)c(C(=O)NCCc3ccccc3Cl)c2)c1=O` yielded a melting point of 157 to 161 °C.

For `Cn1nc(C(F)(F)F)cc1Oc1cc(C#N)cc(Oc2cc(C(F)(F)F)nn2C)c1`, the melting point is 139 °C.

`ClCc1nc(Cl)c2ccccc2n1` had a melting point of 99 to 101 °C.

With `CCc1[nH]nc2c1C(=O)c1c(NC(=O)NN3CCOCC3)cccc1-2`, the melting point was in the range of 253 to 254 °C.

In turn, `CCn1cc(C(=O)O)c(=O)c2cc(F)c(N3CCN(C)C(c4ccc(C)s4)C3)cc21` (centres undefined) gave a melting point of 224 °C.

In the case of `O=C(O)c1cn(C2CC2)c2c(F)c(N3Cc4cccc(O)c4C3)c(F)cc2c1=O`, the melting point is more than 300 °C.

Molecule `CC(C)CC1(C(CCN2C(=O)c3ccccc3C2=O)C(=O)NO)CCN(CCc2ccccc2)C1=O` (centres undefined) had a melting point of 102 to 105 °C.

The molecule `C=C1C(O)C(CO)OC1n1cc(F)c(N)nc1=O` (centres undefined) showed a melting point of 185 to 187 °C.

For the molecule `COC(=S)NN=C1C(=O)Nc2ccc(C3=NNC(=O)SC3C)cc21` (centres undefined), the melting point came out at 245 °C.

Regarding `COCCOc1cc(N(C)S(=O)(=O)c2ccccn2)c2[nH]c(C3=NCC(CN4CCS(=O)CC4)S3)cc2c1` (centres undefined), the melting point lay within 182 to 183 °C.

Regarding `CN(C)c1ccc(NC(=O)Cn2c(-c3ccc(Br)cc3)nc3cccnc32)cc1`, the melting point was in the range of 248 to 250 °C.

`CCOC(=O)c1cc(NCc2ccccc2)c(NC2CCCCC2)c(S(N)(=O)=O)c1` came in with a melting point of 176 to 177 °C.

In turn, `COCOc1cc(Cl)c(Br)cc1C(=O)c1ncccc1OCOC` came in with a melting point of 70 to 72 °C.

For the molecule `CN1N=C(c2ccc(F)cc2)c2cc(F)ccc2CS1(=O)=O`, the melting point is 169 to 171 °C.

On to `O=C(O)c1ncoc1-c1ccoc1`, for which the melting point was 189 to 191 °C.

The molecule `O=C(O)CCc1cccc(OCc2cn(-c3ccc(C(F)(F)F)cn3)nc2C2CCCCC2)c1` showed a melting point of 94 to 95 °C.

In turn, `COc1ccc(C2CCCCC2)cc1-c1csc(NC(=O)N2CCN(C[C@@H]3CCCN(CCC(=O)O)C3)CC2)n1` yielded a melting point of 144 °C.

`C#CCCCOc1cc(/C=C/C(=O)Nc2ccccc2C(=O)O)ccc1OC` had a melting point of 154 to 156 °C.

`CN1CCN(C(=O)/C=C/CSc2nc(N)cc(Cl)n2)CC1` registered a melting point of 155 to 156 °C.

The molecule `Nc1nc(NCCc2ccccc2)nc(-c2cc(Cl)ccc2Cl)n1` gave a melting point of 217 to 218 °C.

Consider `COc1cccc2c1cc(C)n2Cc1ccccc1`, for which the melting point was 96 to 116 °C.

As to `CN(C)c1ccc(-c2cncc(OC3SCC(O)C(O)C3O)c2)cc1` (centres undefined), the melting point worked out at 240 °C.

Take `Cc1[nH]c(=S)n(Nc2cccc(F)c2)c1-c1ccccc1`: the melting point came to 226 °C.

`Oc1nccc2cccnc12` registered a melting point of 236 to 239 °C.

On to `COc1ccc(OC)c(Nc2c(-c3ccc(S(C)(=O)=O)cc3)cnn(CC(F)(F)F)c2=O)c1`, for which the melting point was in the range of 95 to 96 °C.

As to `Cn1c(CNCC(C)(C)S(C)(=O)=O)cc2cc(NC(=O)c3ccc(OCC4CC4)cc3)ccc21`, the melting point lay in the range of 168 to 169 °C.

Take `CCOC(=O)c1nc(O)sc1C(C)=O`: the melting point lay in the range of 105 to 108 °C.

For `CC(C)S(=O)c1ccc2[nH]nc(Nc3nccs3)c2c1` (centres undefined), the melting point was more than 240 °C.

As to `CC(C)(C)Sc1ccc(Cn2c(CC(C)(C)C(=O)O)c(SC(C)(C)C)c3cc(OCc4ccc5ccccc5n4)ccc32)cc1`, the melting point is 172 to 173 °C.

For the molecule `O=[N+]([O-])c1ccc2oc(-c3ccco3)nc2c1`, the melting point was in the range of 175 to 177 °C.

Molecule `O=C1OCc2c(Cl)cccc21` came in with a melting point of 80 to 82 °C.

The molecule `CC(=O)N1CCc2cc(CC(C)N)cc(C#N)c21` (centres undefined) gave a melting point of 94 to 96 °C.

As for `COc1cc2ncnc(N3CCN(C(=S)Nc4cc(O)nc(O)n4)CC3)c2cc1OC`, the melting point lay in the range of 283 to 285 °C.

`O=C(Nc1cccc(Cl)c1)N1CCN(C(=O)c2ccc(Nc3ccnc4cc(C(F)(F)F)ccc34)cc2)CC1`: the melting point is 266 to 268 °C.

Take `CCCCc1c(C(=O)N(C)Cc2ccc3c(Br)c(OCc4nnn[nH]4)ccc3c2)c2ccccc2n1C`: the melting point fell in the range of 147 to 149 °C.

The molecule `Cc1ccc(C(=O)OC2CCC3(C)C(=CCC4C3CCC3(C)C(=NO)CCC43)C2)cc1` (centres undefined) came in with a melting point of 135 to 139 °C.

Consider `COc1cc(C)c(C=O)cc1OCc1ccccc1`, for which the melting point was in the range of 107 to 109 °C.

As to `O=C1OC(Cc2ccc([N+](=O)[O-])cc2)C(=O)N1Cc1ccccc1` (centres undefined), the melting point is 92 to 93 °C.

In turn, `CC(=O)Nc1ccccc1OC(CCc1ccc(Cl)cc1)Cn1ccnc1` (centres undefined) came in with a melting point of 151 to 152 °C.

The molecule `COC(=O)C(=O)c1ccc(OCCOc2ccc3ccccc3c2)cc1` yielded a melting point of 155 to 157 °C.

`COc1ccc(-c2cc(C(=O)O)c(=O)n(CC3CCCC3)n2)cc1F`: the melting point was 159 to 161 °C.

For `CS(=O)(=O)N(CCCl)N(C(=O)NCCCl)S(C)(=O)=O`, the melting point lay in the range of 96 to 97.5 °C.

With `CC1(C)COC(c2ccc(-c3ccc4cc(O)ccc4c3)cc2)=N1`, the melting point was 221 to 223 °C.

As for `CC#CC1CCC(c2ccc(C3CCC(CCC)CC3)cc2)CC1` (centres undefined), the melting point amounted to 134 °C.

`C[C@H]1[C@H](O)[C@H](O)C(S(=O)(=O)c2ccccc2)=C[C@H](C)[C@H]1O[Si](C)(C)C(C)(C)C` gave a melting point of 117 to 119 °C.

`CCOCCOCCn1c(C=O)cc2c1CC(c1ccccc1Cl)C1C(=O)NC(=O)C21` (centres undefined) registered a melting point of 190 to 193 °C.

As for `CC(C)Cc1ccccc1Sc1c(O)cc(-c2ccccc2)oc1=O`, the melting point was 195 °C.

Take `CC(C)Oc1ccc(-c2nn(C(C)c3oc4cccc(N5CCOCC5)c4c(=O)c3-c3cccc(F)c3)c3ncnc(N)c23)cc1F` (centres undefined): the melting point fell in the range of 227 to 229 °C.

Molecule `O=C(O)CCc1cnoc1-c1cc(Cl)ccc1Cl` registered a melting point of 103 to 104 °C.

In the case of `O=C1c2cc([N+](=O)[O-])ccc2OCCN1CCO`, the melting point was determined as 151 °C.

`Cc1ccc(-c2nc(C(=O)Nc3nnn[nH]3)c(C)s2)s1` displayed a melting point of 278 to 280 °C.

In turn, `CC(=O)OC1CSC(Oc2cccc(C#N)c2)C(OC(C)=O)C1OC(C)=O` (centres undefined) yielded a melting point of 148 to 151 °C.

Take `N#Cc1cc(C2=NOC(c3cc(Cl)cc(Cl)c3)(C(F)(F)F)C2)ccc1-n1cncn1` (centres undefined): the melting point fell in the range of 118 to 125 °C.

As for `CCCCCCCCCCCCCCCNC(=O)OCCOCCOCCOC(=O)NCc1ccccn1`, the melting point is 58 to 62 °C.

In turn, `Sc1nc(CCCc2cc(Cl)cc(Cl)c2)c[nH]1` registered a melting point of 98 to 99 °C.

Molecule `CC(C)S(=O)(=O)n1c(N)nc2ccc(C(O)(CC(=O)N(C)C)c3ccccc3)cc21` (centres undefined) displayed a melting point of 209 to 210 °C.

The molecule `CC1CN(C)N(c2cc(Cl)cc(Cl)c2)C(=O)N1` (centres undefined) had a melting point of 129 to 130 °C.

`O=c1c(Br)c(OCc2ccc(F)c(F)c2F)ccn1Cc1cccc(F)c1` gave a melting point of 176 to 178 °C.

The molecule `Cn1nc(-c2ccc3cc(O)ccc3c2)c2ccc(O)cc21` gave a melting point of 290 to 292 °C.

The molecule `CCOC(=O)c1ncn2c1CNc1ccccc1-2` registered a melting point of 248 to 250 °C.

Turning to `COc1cc2c(cc1OC)C(Cc1cc(I)c(NC(C)=O)c(I)c1)N(C(=O)C(F)(F)F)CC2` (centres undefined), the melting point lay in the range of 218 to 219 °C.

Molecule `CC(C)(C)OC(=O)NCC12CCC1CNC2` (centres undefined) gave a melting point of 83 to 86 °C.

With `NC(=O)CC[C@H](Nc1ccc(O)cc1)C(=O)O`, the melting point fell in the range of 211 to 212 °C.

Molecule `Cc1noc(C)c1S(=O)(=O)n1c(=O)sc2ccccc21` yielded a melting point of 140 to 144 °C.

The molecule `CN1c2nnnn2-c2ccc(C(O)(c3ccc(Cl)cc3)c3cncn3C)cc2C1c1cccc(Cl)c1` (centres undefined) came in with a melting point of 235 °C.

`COc1cccc([C@H]2O[C@H](CC(=O)N[C@@H](CCSC)C(=O)O)C(=O)N(CC(C)(C)CO)c3ccc(Cl)cc32)c1OC` displayed a melting point of 129 to 130 °C.

`ClCCCCCCCCOc1ccc2ccccc2c1` showed a melting point of 35 °C.

Consider `CSC(SC)=C1C(=O)CCCC1=O`, for which the melting point was 66 to 67 °C.

Take `CN(C)C(=O)C(CCO)C1CCc2[nH]c3ccccc3c21` (centres undefined): the melting point lay within 135 to 137 °C.

`COC(=O)c1nn(Cc2ccc(Cl)c(Cl)c2)c(=O)c2cc(OC)ccc12` registered a melting point of 144 to 146 °C.

Regarding `CC(c1ccc(Oc2ccc(N)cc2)cc1)(c1ccc(Oc2ccc(N)cc2)cc1)c1ccc(Oc2ccc(N)cc2)cc1`, the melting point was 220 to 221 °C.

Take `Cc1cc2c(cc1C)C(=O)CCC2`: the melting point is 47 to 48 °C.

In turn, `Cc1c(N)noc1C(F)(F)C(F)(F)F` displayed a melting point of 32 to 34 °C.

`c1cc2c(cc1N1CCNCC1)OCCO2` returned a melting point of 138 °C.

For `Cc1c2n(c3ccccc13)C(=O)C(Cn1ccnc1C)CC2` (centres undefined), the melting point was 120 to 121 °C.

In the case of `c1cc(-c2cncnc2)cc(-n2cnc3cc(-n4cccc4)ccc32)c1`, the melting point is 197 to 198 °C.

Turning to `COC(=O)[C@H](C)NC(=O)CCCN(C(=O)c1ccc(Cl)cc1)c1c(C)cccc1C`, the melting point fell in the range of 91 to 92 °C.

`CCOC(=O)c1cn2c(n1)C=NC=C1C=CCC=C12` registered a melting point of 134 to 135 °C.

With `O=C(NCc1ccccc1)c1ccnc(NC(=O)c2ccc(C(F)(F)F)cc2)c1`, the melting point fell in the range of 181 to 183 °C.

`CNCC1Oc2cc(F)cc(-c3ccccc3Cl)c2O1` (centres undefined): the melting point is 132 to 134 °C.

`C[N+](C)([O-])c1ccc(/C=C/c2c(F)cccc2Cl)cc1` gave a melting point of 82 to 84 °C.
